# According to patent publication US9468642B2, “Imidazopyrazines” (BAYER INTELLECTUAL PROPERTY GMBH, priority 2011, dated 2016):
# Target: human kinase Mps-1 (Homo sapiens (Human), UniProt P33981)
# Experiment: Mps-1 Kinase Assay (TR-FRET)
# Type: biochemical
# Conditions: N-terminally GST-tagged human full length recombinant Mps-1; 10 μM ATP; 1 μM peptide substrate; 60 min at 22° C.; read-out: Mps1 IC50
# Experimental: The human kinase Mps-1 phosphorylates a biotinylated substrate peptide. Detection of the phosphorylated product is achieved by time-resolved fluorescence resonance energy transfer (TR-FRET) from Europium-labelled anti-phospho-Serine/Threonine antibody as donor to streptavidin labelled with cross-linked allophycocyanin (SA-XLent) as acceptor. Compounds are tested for their inhibition of the kinase activity.
# N-terminally GST-tagged human full length recombinant Mps-1 kinase (purchased from Invitrogen, Karslruhe, Germany, cat. no PV4071) was used. As substrate for the kinase reaction a biotinylated peptide of the amino-acid sequence […] (C-terminus in amide form, purchased from Biosynthan GmbH, Berlin) was used.
# The concentration of Mps-1 in the assay was adjusted to the activity of the enzyme lot and was chosen appropriate to have the assay in the linear range, typical enzyme concentrations were in the range of about 1 nM (final conc. in the 5 μl assay volume).
# The resulting mixture was incubated 1 h at 22° C. to allow the binding of the phosphorylated peptide to the anti-phospho(Ser/Thr)-Europium-antibody. Subsequently the amount of phosphorylated substrate was evaluated by measurement of the resonance energy transfer from the Europium-labelled anti-phospho(Ser/Thr) antibody to the Streptavidin-XLent.
# Sequence of human kinase Mps-1 (P33981 whole entry): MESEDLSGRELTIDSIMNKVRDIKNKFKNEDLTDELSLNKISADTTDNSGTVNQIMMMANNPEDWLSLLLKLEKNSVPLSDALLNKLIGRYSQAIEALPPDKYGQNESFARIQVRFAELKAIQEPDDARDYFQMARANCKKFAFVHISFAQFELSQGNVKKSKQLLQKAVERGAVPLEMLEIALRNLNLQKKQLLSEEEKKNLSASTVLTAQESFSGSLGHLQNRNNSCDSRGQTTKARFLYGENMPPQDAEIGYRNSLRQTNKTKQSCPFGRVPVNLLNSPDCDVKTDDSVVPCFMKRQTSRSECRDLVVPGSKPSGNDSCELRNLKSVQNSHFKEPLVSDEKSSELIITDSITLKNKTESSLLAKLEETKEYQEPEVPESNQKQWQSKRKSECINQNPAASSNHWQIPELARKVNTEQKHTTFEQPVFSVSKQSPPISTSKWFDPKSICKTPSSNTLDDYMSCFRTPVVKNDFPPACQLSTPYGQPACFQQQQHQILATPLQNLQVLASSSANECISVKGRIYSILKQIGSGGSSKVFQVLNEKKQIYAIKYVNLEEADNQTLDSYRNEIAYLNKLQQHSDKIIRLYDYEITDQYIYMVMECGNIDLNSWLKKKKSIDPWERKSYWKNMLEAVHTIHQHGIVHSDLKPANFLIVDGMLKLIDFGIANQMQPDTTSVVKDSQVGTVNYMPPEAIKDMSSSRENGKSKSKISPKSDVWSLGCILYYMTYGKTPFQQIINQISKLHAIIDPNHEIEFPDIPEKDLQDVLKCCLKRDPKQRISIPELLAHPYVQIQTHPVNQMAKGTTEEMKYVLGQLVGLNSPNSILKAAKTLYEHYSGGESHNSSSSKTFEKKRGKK
row,Compound,IC50
1,"O=C(NC1CC1)c1ccc(-c2cnc3c(SCCCCO)nc(-c4ccccc4)cn23)cc1 [Example 35, N-cyclopropyl-4-{8-[(4-hydroxybutyl)sulfanyl]-6-phenylimidazo[1,2-a]pyrazin-3-yl}benzamide]",3.7 nM
2,"O=C(NC1CC1)c1ccc(-c2cnc3c(S(=O)(=O)CCCCO)nc(-c4ccccc4)cn23)cc1 [Example 36, N-cyclopropyl-4-{8-[(4-hydroxybutyl)sulfonyl]-6-phenylimidazo[1,2-a]pyrazin-3-yl}benzamide]",5.1 nM
3,"(1R or 1S)-1-(4-{3-[4-(2-cyclopropyl-1H-imidazol-5-yl)phenyl]-8-(methylsulfanyl)imidazo[1,2-a]pyrazin-6-yl}phenyl)ethanol [Example 34B]",58.2 nM
4,"(1S or 1R)-1-(4-{3-[4-(2-cyclopropyl-1H-imidazol-5-yl)phenyl]-8-(methylsulfanyl)imidazo[1,2-a]pyrazin-6-yl}phenyl)ethanol [Example 34C]",95 nM
